Results on ten molecules are retold here after ChEMBL document CHEMBL1201862, “PubChem BioAssay data set” (2004).

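Step 1: Grow cells in 96-well plates. Step 2: Expose to compound for 48 hours at 5 concentrations. Step 3: Interpolate endpoints linearly; if unreached, use highest concentration. Here, GI50 denotes the concentration required for 50% inhibition of growth.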 The source made the active and inactive calls. No stated cut-off is given here; in the data, active = GI50 up to about 1.1 µM and inactive = higher.

Some test systems named below: CAKI-1; CCRF-CEM; K562; KM12; M14; MDA-N; Malme-3M; NCI-H226; NCI-H460; OVCAR-8; PC-3; RPMI-8226; RXF 393; SF-539; SK-MEL-28; SK-OV-3; SNB-19; SW-620; UACC-62; UO-31.
Experiment in all cases: NCI-60 cell line screen, 48 h

`Nc1nc(N)c(CCCCc2ccccc2)c(N)n1`: the GI50 with CAKI-1, in the test with CCRF-CEM, in the test with K562, with KM12, in the test with M14 and with MDA-N was > 100 µM (inactive) in each case. Moreover, the GI50 with Malme-3M, in the test with NCI-H226, in the test on NCI-H460, with OVCAR-8, with PC-3 and with RPMI-8226 was > 100 µM (inactive) throughout. The GI50 with RXF 393, with SF-539, with SK-MEL-28, in the test on SK-OV-3, with SNB-19 and in the test with SW-620 was > 100 µM (inactive) each time. Besides, the GI50 with UACC-62 and in the test on UO-31 was > 100 µM (inactive) each time.

Take `BrC(=C(c1ccc(OC2CCCCO2)cc1)c1ccc(OC2CCCCO2)cc1)c1ccccc1` (stereo not given): the GI50 with CAKI-1, in the test on CCRF-CEM, in the test with K562, with KM12, in the test on M14 and in the test with MDA-N was > 100 µM (inactive) throughout. For the same molecule, the GI50 in the test with Malme-3M, in the test with NCI-H226, in the test with NCI-H460, in the test on OVCAR-8, in the test on PC-3 and in the test with RPMI-8226 was > 100 µM (inactive) in each case. Moreover, the GI50 in the test on RXF 393, in the test with SF-539, in the test with SK-MEL-28, with SK-OV-3, in the test with SNB-19 and with SW-620 was > 100 µM (inactive) in each case. Further, the GI50 with UACC-62 and in the test with UO-31 was > 100 µM (inactive) each time.

For the molecule `CCOC(=O)N1CCc2cc(OC)c(OC)c3c2c1cc1cc(OC)c(OC)cc13`, the GI50 is 2.51 µM (inactive) in the test with CAKI-1; 4.26 µM (inactive) with CCRF-CEM; 2.91 µM (inactive) in the test on K562; 0.695 µM (active) in the test with KM12; 4.29 µM (inactive) in the test with M14; 0.127 µM (active) in the test with MDA-N. Further, the GI50 with Malme-3M is 3.5 µM (inactive); in the test with NCI-H226, 4.33 µM (inactive); with NCI-H460, 1.09 µM (active); in the test with OVCAR-8, 4.8 µM (inactive); in the test on PC-3 it was 1.54 µM (inactive); in the test on RPMI-8226 it was 3.76 µM (inactive). The GI50 in the test on RXF 393 is 2 µM (inactive); in the test on SF-539, 1.69 µM (inactive); with SK-MEL-28, 4.19 µM (inactive); in the test with SK-OV-3, 2.56 µM (inactive); with SNB-19 it was 10.9 µM (inactive); in the test with SW-620, 1.15 µM (inactive). The GI50 was 0.94 µM (active) in the test with UACC-62 and 11.1 µM (inactive) with UO-31.

As to `CC1=NN(c2nc(N)nc(/C(C#N)=C\c3ccc(-c4ccc([N+](=O)[O-])cc4)o3)n2)C(C)(C)C1`, the GI50 is > 100 µM (inactive) in the test with CAKI-1; 0.807 µM (active) with CCRF-CEM; > 100 µM (inactive) with K562; > 100 µM (inactive) in the test on KM12; > 100 µM (inactive) in the test with M14; > 100 µM (inactive) in the test with MDA-N. Moreover, the GI50 with Malme-3M, with NCI-H226, in the test with NCI-H460, in the test on OVCAR-8, in the test with PC-3 and with RPMI-8226 was > 100 µM (inactive) each time. Besides, the GI50 with RXF 393, with SF-539, in the test on SK-MEL-28, in the test with SK-OV-3, in the test on SNB-19 and in the test with SW-620 was > 100 µM (inactive) throughout. The GI50 with UACC-62 and in the test with UO-31 was > 100 µM (inactive) throughout.

Regarding `CC(CO)CCC(O)C(C)(O)C1CCC2(O)C3=CC(=O)C4CC(O)C(O)CC4(C)C3CCC12C` (stereo not given), the GI50 in the test with CAKI-1 is > 100 µM (inactive); in the test with CCRF-CEM, 81.3 µM (inactive); in the test on K562, > 100 µM (inactive); with KM12, > 100 µM (inactive); with M14 it was > 100 µM (inactive); in the test with MDA-N, > 100 µM (inactive). Moreover, the GI50 in the test with Malme-3M, in the test on NCI-H226, in the test with NCI-H460, in the test with OVCAR-8, in the test on PC-3 and in the test on RPMI-8226 was > 100 µM (inactive) throughout. The GI50 with RXF 393, in the test on SF-539, with SK-MEL-28, with SK-OV-3, with SNB-19 and with SW-620 was > 100 µM (inactive) each time. The GI50 in the test on UACC-62 and in the test on UO-31 was > 100 µM (inactive) in each case.

On to `Nc1nc(F)nc2c1ncn2C1OC(CO)C(O)C1O` (stereo not given), for which the GI50 in the test with CAKI-1 is 34.6 µM (inactive); in the test with CCRF-CEM, 0.344 µM (active); in the test with K562 it was > 76.6 µM (inactive); in the test with KM12, > 100 µM (inactive); with M14, 8.53 µM (inactive); in the test with MDA-N, > 58.6 µM (inactive). Moreover, the GI50 is 32.5 µM (inactive) in the test on Malme-3M; > 100 µM (inactive) with NCI-H226; 73.1 µM (inactive) with NCI-H460; 4.61 µM (inactive) in the test on OVCAR-8; 30.5 µM (inactive) with PC-3; > 100 µM (inactive) in the test on RPMI-8226. The GI50 in the test on RXF 393 was > 81.8 µM (inactive); in the test with SF-539, > 100 µM (inactive); with SK-MEL-28, > 77.3 µM (inactive); in the test with SK-OV-3, 23.2 µM (inactive); in the test with SNB-19 it was 19.2 µM (inactive); in the test with SW-620, 69 µM (inactive). Also, the values for the GI50 in the test on UACC-62 and in the test on UO-31 were 58.6 µM (inactive) and 11.1 µM (inactive), respectively.

For the molecule `O=C(NCCc1ccc(F)cc1)c1cc(/C=C/c2cc(O)ccc2O)ccc1O`, the GI50 is 3.03 µM (inactive) in the test on CAKI-1; 1.61 µM (inactive) in the test on CCRF-CEM; 3.03 µM (inactive) in the test on K562; 6.05 µM (inactive) with KM12; 3.67 µM (inactive) in the test on M14; 3.05 µM (inactive) in the test on MDA-N. Also, the GI50 in the test with Malme-3M was 2.42 µM (inactive); in the test on NCI-H226, 8.59 µM (inactive); in the test with NCI-H460, 9.75 µM (inactive); with OVCAR-8 it was 3.29 µM (inactive); in the test on PC-3, 2.96 µM (inactive); in the test with RPMI-8226 it was 3.01 µM (inactive). Moreover, the GI50 in the test on RXF 393 was 2.03 µM (inactive); with SF-539, 2.36 µM (inactive); with SK-MEL-28, 3.21 µM (inactive); with SK-OV-3 it was 13 µM (inactive); in the test on SNB-19, 5.45 µM (inactive); with SW-620, 7.64 µM (inactive). Moreover, the values for the GI50 in the test with UACC-62 and in the test with UO-31 were 2.12 µM (inactive) and 1.66 µM (inactive), respectively.

Consider `CN(C)CCNc1ccc2nnn3c4ccc(Cl)cc4c(=O)c1c23`, for which the GI50 is 2.25 µM (inactive) in the test on CAKI-1; 4.62 µM (inactive) in the test with CCRF-CEM; 2.14 µM (inactive) in the test with K562; 4.54 µM (inactive) with KM12; 4.94 µM (inactive) with M14; 3.52 µM (inactive) in the test on MDA-N. Further, the GI50 with Malme-3M was 4.89 µM (inactive); in the test with NCI-H226, 2.06 µM (inactive); in the test with NCI-H460 it was 2.48 µM (inactive); with OVCAR-8, 1.7 µM (inactive); in the test with PC-3, 2.76 µM (inactive); with RPMI-8226, 2.92 µM (inactive). Also, the GI50 was 3.15 µM (inactive) in the test on RXF 393; 4.78 µM (inactive) with SF-539; 5.74 µM (inactive) with SK-MEL-28; 9.89 µM (inactive) with SK-OV-3; 4.17 µM (inactive) with SNB-19; 1.03 µM (active) with SW-620. The GI50 with UACC-62 is 4.89 µM (inactive); in the test on UO-31, 1.56 µM (inactive).

In the case of `C=C1CC(c2ccc(OCCCN3C(=O)c4ccccc4C3=O)c(OC)c2)OC1=O` (stereo not given), the GI50 with CAKI-1 was 3.66 µM (inactive); in the test with CCRF-CEM it was 1.06 µM (active); in the test with K562, 1.07 µM (active); in the test on KM12, 10.8 µM (inactive); in the test on M14, 4.3 µM (inactive); with MDA-N, 3.44 µM (inactive). Further, the GI50 with Malme-3M was 3.27 µM (inactive); in the test with NCI-H226 it was 5.61 µM (inactive); in the test on NCI-H460, 2.62 µM (inactive); in the test with OVCAR-8, 2.93 µM (inactive); with PC-3 it was 12.4 µM (inactive); in the test with RPMI-8226, 0.849 µM (active). The GI50 was 1.95 µM (inactive) with RXF 393; 0.303 µM (active) in the test on SF-539; 2.21 µM (inactive) in the test with SK-MEL-28; 15.4 µM (inactive) in the test with SK-OV-3; 11.9 µM (inactive) in the test with SNB-19; 1.56 µM (inactive) in the test with SW-620. Moreover, the GI50 in the test on UACC-62 is 2.07 µM (inactive); in the test on UO-31 it was 3.69 µM (inactive).

With `COc1cc2ncnc(Nc3cccc(Br)c3)c2cc1OC`, the GI50 in the test with CAKI-1 is 1.37 µM (inactive); with CCRF-CEM, 30.2 µM (inactive); in the test on K562, 15.9 µM (inactive); with KM12 it was 2.7 µM (inactive); in the test with M14 it was 3.79 µM (inactive); with MDA-N, 7.26 µM (inactive). Further, the GI50 was 7.36 µM (inactive) with Malme-3M; 3.25 µM (inactive) in the test on NCI-H226; 5.75 µM (inactive) in the test with NCI-H460; 3.72 µM (inactive) with OVCAR-8; 3.77 µM (inactive) in the test on PC-3; 34.1 µM (inactive) with RPMI-8226. The GI50 in the test on RXF 393 is 11.5 µM (inactive); in the test with SF-539 it was 4.07 µM (inactive); in the test on SK-MEL-28, 4.52 µM (inactive); with SK-OV-3, 0.284 µM (active); in the test on SNB-19, 15.2 µM (inactive); with SW-620, 13.2 µM (inactive). Moreover, the GI50 with UACC-62 is 3.85 µM (inactive); with UO-31, 1.98 µM (inactive).
